Data from ChEMBL document CHEMBL1144335, “7alpha,11beta-Dimethyl-19-nortestosterone: a potent and selective androgen response modulator with prostate-sparing properties” (Bioorg Med Chem Lett, 2005).

Tests used:
[1] = target: Estrogen receptor (Rattus norvegicus) (UniProt P06211+Q62986); test: Binding affinity for estrogen receptor in rat (n=3)
[2] = target: T1, Androgen receptor (Rattus norvegicus) (UniProt P15207); test: Relative binding affinity for rat androgen receptor compared to dihydrotestosterone (100) (n=4)
T1 sequence (whole entry): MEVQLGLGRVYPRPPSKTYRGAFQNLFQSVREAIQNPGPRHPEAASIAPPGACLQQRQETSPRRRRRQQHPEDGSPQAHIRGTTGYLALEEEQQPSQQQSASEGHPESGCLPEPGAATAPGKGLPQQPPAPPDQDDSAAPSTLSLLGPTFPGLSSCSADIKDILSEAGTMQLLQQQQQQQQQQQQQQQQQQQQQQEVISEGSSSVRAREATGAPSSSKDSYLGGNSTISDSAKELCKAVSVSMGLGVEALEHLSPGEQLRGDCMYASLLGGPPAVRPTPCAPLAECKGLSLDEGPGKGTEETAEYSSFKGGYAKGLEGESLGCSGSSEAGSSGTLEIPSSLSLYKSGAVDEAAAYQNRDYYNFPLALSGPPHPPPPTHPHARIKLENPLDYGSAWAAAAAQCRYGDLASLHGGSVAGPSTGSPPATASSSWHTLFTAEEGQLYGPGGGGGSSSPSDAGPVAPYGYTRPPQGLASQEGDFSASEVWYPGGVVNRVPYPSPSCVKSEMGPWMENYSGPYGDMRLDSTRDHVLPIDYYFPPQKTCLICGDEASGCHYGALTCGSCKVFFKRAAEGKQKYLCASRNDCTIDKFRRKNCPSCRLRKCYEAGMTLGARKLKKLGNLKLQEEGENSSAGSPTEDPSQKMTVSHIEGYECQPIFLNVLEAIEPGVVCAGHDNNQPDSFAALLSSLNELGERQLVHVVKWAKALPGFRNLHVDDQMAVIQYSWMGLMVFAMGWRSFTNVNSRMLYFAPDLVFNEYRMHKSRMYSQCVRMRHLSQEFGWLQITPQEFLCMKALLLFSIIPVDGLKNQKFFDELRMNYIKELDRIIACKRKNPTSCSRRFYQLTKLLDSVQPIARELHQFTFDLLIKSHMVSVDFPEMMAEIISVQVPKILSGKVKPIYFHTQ

Compound	Binding affinity [1]	Binding affinity [2]
C[C@@H]1CC2=CC(=O)CCC2C2C1C1CC[C@H](O)[C@@]1(C)C[C@@H]2C (stereo partly drawn)	0.6	194
C[C@H]1C[C@@]2(C)C(CC[C@@H]2O)C2C1C1CCC(=O)C=C1C[C@@H]2C (stereo partly drawn)		22
